# Entries after “also recorded” stand apart in the source; their conditions may differ. Where two headings read alike, the source gives them in different places. Marks after values point to notes of the source that are not given here.
# How the values were obtained:
# [1] = pH titration by 1H/19F NMR of open and chelate forms (apparent pKa); assay type: physicochemical; conditions: 2.46 mM complex, D2O, 0.1 M NaCl; for Apparent pKa: Henderson-Hasselbalch fit of % open form versus pD
# Method: The ability of the tethered sulfonamide functionality to reversibly ligate to the ruthenium atom in a pH-dependent manner, forming an intramolecular chelate, was examined by recording ^1H NMR spectra of 1–5 (and ^19F NMR spectra for 2–5) (2.46 mM complex, D2O, […], 0.1 M NaCl) as a function of pH. Within these spectra two unique sets of signals were observed, the relative proportion of these being pH-dependent, that were assigned to the open and chelate forms of the complexes (Figures S12–S15). Plotting the percentage of open form of the complex, calculated from the ratio of selected ligand signals corresponding to the open and chelate forms of the complexes, versus pD yielded sigmoidal curves in each case and apparent pKa values for 1–5 (Table 1) were determined by fitting of the Henderson-Hasselbalch equation to the data (Figure 7 and Figure 8).
# pH titrations of 1–6 and [Ru(η^6-C6H5CH2CH2NHTr)(C2O4)(H2O)] were conducted by adjustment of the pD of solutions of the complexes (2.46 mM, 295 K, 0.1 M NaCl) in D2O through addition of 1–5 µL aliquots of NaOD (3.6 wt.%) and DCl (1.8 wt.%) solutions in D2O. Following pD adjustment the solutions were left to equilibrate (for 1–6 this was up to 36 h) then the ^1H and ^19F spectra of each were recorded. The ratio of selected ligand signals (for example –CH3 for 1, arene resonances for 2, –CF3 for 3–5) corresponding to the open- and chelate-forms of the complex were determined for each pD value and enabled a plot of % open-form versus pD. pKa values were calculated through fitting of the Henderson-Hasselbalch equation to the data.
# [2] = Solution stability (NaCl, arene loss on standing of NMR solution); assay type: physicochemical; conditions: standing for extended periods of time (>24 h)
# Method: A total of six half-sandwich ruthenium(II) arene complexes were synthesized for evaluation in this study (Figure 2). [Ru(η^6-C6H5CH2CH2NHR)(en)(Cl)]PF6 (R = Ms (1), tresyl (Tr) (2), Tf (3) or acetyl (6)) and [Ru(η^6-C6H5(CH2)3CH2NHTf)(en)(Cl)]PF6 (5) were prepared via reaction of the respective [RuCl2(η^6-C6H5(CH2)nCH2NHR)]2 (R = acetyl, Ms, Tf or Tr) complex with ethylenediamine followed by the addition of NH4PF6 then crystallization of the product by concentration of the methanol solution or via vapor diffusion with diethyl ether. [Ru(η^6:κ^1-C6H5(CH2)2CH2NTf)(en)]PF6 (4) was prepared via the reaction of [RuCl2(η^6-C6H5(CH2)2CH2NHTf)]2 with ethylenediamine then treatment with silver carbonate and triethylamine, followed by addition of NH4PF6 and precipitation of the product by concentration and cooling. All complexes are soluble in water (≥5 mM) and stable in the presence of NaCl (100 mM). All complexes were characterized by ^1H, ^13C and ^19F NMR spectroscopy, high resolution mass spectrometry and elemental analysis.
# During these studies it was observed that for 1–3 arene-ruthenium cleavage began to occur on standing of the NMR solution for even relatively short periods of time (>1 h) (Figures S12–S14).
# [3] = design: method as in doi:10.1021/acs.organomet.7b00868; conditions: R = Ms, Tf; reported previously; cited from earlier work
# [4] = cited from earlier work
# 5′-GMP = test: NMR binding study with the model ligand 5′-GMP; conditions: 1 eq. 5′-GMP, 2.46 mM complex, phosphate buffer 0.2 M, 310 K, 0.1 M NaCl
# Method: (§1) The coordination of a metallodrug, via the metal ion, to biomacromolecular targets is a major mechanism by which biological activity is exerted in many of these complexes. To evaluate the ability of intramolecular sulfonamide ligation to regulate the availability of a coordination site at the ruthenium ion in this family of complexes, and therefore control ligation of endogenous ligands to the complex, binding studies were performed between 4 (and the control compound 6) and the model ligands L-histidine and 5′-GMP. 4 and 6 were incubated with 1 eq. of 5′-GMP or L-histidine (2.46 mM complex, phosphate buffer (0.2 M), 310 K, 0.1 M NaCl) for 144 h at pD values of 7.5 and 6.5 in each case. Incubations were monitored by ^1H and ^19F NMR. […] The degree of L-histidine coordination was not able to be quantified using ^1H NMR due to hydrogen-deuterium exchange which occurs at the histidine C2 proton and low intensity and overlapping peaks, but was more pronounced at pD 7.5 than pD 6.5. […]
# (§2) The reactivity of 4 and 6 towards 5′-GMP/L-histidine was assessed by mixing stock solutions of the complex and ligand in phosphate buffer (both in D2O, 0.1 M NaCl) to yield 1:1 solutions with each component present at a concentration of 2.46 mM (200 mM buffer concentration, 0.1 M NaCl). […] Samples were incubated at 310 K and monitored using ^1H and ^19F NMR. […]
# [5] = NMR binding study with the model ligand L-histidine; conditions: 1 eq. L-histidine, 2.46 mM complex, phosphate buffer 0.2 M, 310 K, 0.1 M NaCl
# Method: as §1, §2
# bovine serum albumin = bovine serum albumin (Bos taurus, UniProt P02769); test: Incubation with bovine serum albumin monitored by 1H and 19F NMR; conditions: 72 h, 2.46 mM complex, 0.5 mM BSA, 310 K, pD 7.4
# bovine serum albumin, sequence (P02769 25-607): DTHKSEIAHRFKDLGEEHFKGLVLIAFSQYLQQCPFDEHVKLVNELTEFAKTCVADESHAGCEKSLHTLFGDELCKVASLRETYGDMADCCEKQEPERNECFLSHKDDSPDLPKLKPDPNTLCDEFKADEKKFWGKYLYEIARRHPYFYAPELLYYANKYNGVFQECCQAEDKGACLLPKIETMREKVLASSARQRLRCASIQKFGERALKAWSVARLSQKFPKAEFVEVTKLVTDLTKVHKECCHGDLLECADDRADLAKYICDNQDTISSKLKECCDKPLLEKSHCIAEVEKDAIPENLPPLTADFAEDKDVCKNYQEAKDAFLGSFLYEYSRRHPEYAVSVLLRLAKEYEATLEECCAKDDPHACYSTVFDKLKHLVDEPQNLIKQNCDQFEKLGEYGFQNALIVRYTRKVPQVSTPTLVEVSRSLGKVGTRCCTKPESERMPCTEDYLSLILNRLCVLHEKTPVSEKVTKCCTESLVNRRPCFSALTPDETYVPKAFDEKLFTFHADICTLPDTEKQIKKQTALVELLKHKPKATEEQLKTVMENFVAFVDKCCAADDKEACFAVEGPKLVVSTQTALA
# [6] = Conversion of chelate form to open form in citrate/phosphate buffer, 19F NMR; assay type: physicochemical; conditions: 310 K
# Method: To gain further insight into the reactivity of 4 the conversion of the chelate form to open form of the complex was probed in three different citrate/phosphate buffer solutions at 310 K (Figure 9). Aqueous solutions of 4 at pD 7.61 (where the chelate form of the complex exists exclusively) were diluted into citrate/phosphate buffer to yield solutions at pD 4.12, 4.91 and 5.96 (2.46 mM complex, 0.1 M NaCl). The conversion of the chelate form to the open form was monitored by ^19F NMR spectroscopy over 16 h. Under the most acidic conditions (pD 4.12) equilibrium was reached within the 16 h experiment duration, with 93% of 4 converting to the open form.
# The conversion of the chelate-form of 4 to the activated open-form was investigated by dilution of a stock solution of 4 (D2O, 0.1 M NaCl) into citrate/phosphate buffer solutions (D2O, 0.1 M NaCl) at pD 4.12, 4.91 and 5.96 to yield solutions at a final complex concentration of 2.46 mM. The samples were maintained at 310 K within the NMR spectrometer and ^19F NMR spectra were recorded every 15 min for 16 h. The ratio of the –CF3 signals corresponding to the open- and chelate-forms of the complex were determined to allow a plot of % open-form versus time. The fitting of the equation y = C + A(1−e^−kx) (C-offset from zero; A-amplitude of the curve) to each set of experimental data yielded the half-life for the fraction of the chelate-form of 4 which is converted to the open-form.
# HT-29 cell line = test: MTT cytotoxicity assay; assay type: cell-based, human; conditions: HT-29, concentrations up to 100 µM, 72 h
# Method: Having established the ability of 4 to coordinate to biologically relevant ligands in a pH-dependent manner we evaluated the cytotoxicity of 4 (and 6 as a control unable to form an intramolecular chelate) against the HT-29 cell line using the MTT assay. In light of the potential non-covalent interaction of 4 with protein as described earlier these assays were performed for both 4 and 6 using media containing 10% and 1% fetal calf serum to assess the effect of serum concentration on cytotoxicity. […] It is clear that while 6 is readily able to coordinate to 5′-GMP and L-histidine, and presumably forms biomacromolecular adducts in cell culture experiments, the nature and/or level of adducts formed is not detrimental to HT-29 cell viability. The ability of 4 to form biomacromolecular adducts in cell culture conditions will be less than that of 6 due to substantial intramolecular sulfonamide ligation under these pH conditions. […]
# HT-29 (human colon adenocarcinoma) cells were counted and the concentration adjusted to 3 × 10^4 cells/.mL 100 µL of the cell suspension was dispensed into the wells of a 96 well plate. […] The results were read on a plate reader (Biotek ELX800 Universal Microplate Reader) at 570 nm. The viability of the cells is expressed as % of cell survival of each dilution against the “cells only” control taken as 100% survival. […]
compound,measurement,setting,value
[Ru(η^6-C6H5(CH2)3CH2NHTf)(en)(Cl)]PF6 [Complex 5],Apparent pKa,[1],8.00
same,Arene loss on standing of the NMR solution,[2],not observed
[Ru(η^6-C6H5CH2CH2NHMs)(C2O4)(H2O)],Apparent pKa for the Analogous [Ru(η^6-C6H5CH2CH2NHR)(C2O4)(H2O)] Complex,[3],6.65 ^‡
"cis-[PtCl(Me2N(CH2)2PPh2-N,P)(Me2N(CH2)2PPh2-P)]Cl","pKa (ring-open/ring-closed equilibrium, pH titrations)",[4],6.9
[Ru(η^6-C6H5CH2CH2NHTr)(C2O4)(H2O)],Apparent pKa for the Analogous [Ru(η^6-C6H5CH2CH2NHR)(C2O4)(H2O)] Complex,"[1]; R = Tr, 295 K",5.75
[Ru(η^6-C6H5CH2CH2NHTf)(C2O4)(H2O)],Apparent pKa for the Analogous [Ru(η^6-C6H5CH2CH2NHR)(C2O4)(H2O)] Complex,[3],4.05 ^‡
[Ru(η^6:κ^1-C6H5(CH2)2CH2NTf)(en)]PF6 [Complex 4],Apparent pKa,[1],4.82
same,5′-GMP coordinated to the complex,"5′-GMP; pD 6.5, 144 h",16 ± 1.6%
same,5′-GMP coordinated to the complex,"5′-GMP; pD 7.5, 144 h",no coordination
same,Coordination of L-histidine to the complex,"[5]; pD 6.5, 144 h",lack of reactivity; also recorded: No coordination
same,Coordination of L-histidine to the complex,"[5]; pD 7.5, 144 h",lack of reactivity; also recorded: no coordination
same,Non-covalent interaction with bovine serum albumin (1H NMR signals broader and slightly shifted),bovine serum albumin,non-covalent interactions between 4 and the protein may be occurring
same,Reactivity (covalent interaction) towards bovine serum albumin,"bovine serum albumin; phosphate buffer 0.2 M, 0.1 M NaCl",lack of reactivity; also recorded: no covalent interaction
same,Fraction converted to the open form at equilibrium,"[6]; pD 4.12, equilibrium reached within 16 h, 2.46 mM complex, 0.1 M NaCl",93%
same,Open form present at equilibrium (from data fitting),"[6]; pD 4.91, equilibrium not reached within 16 h",61%
same,Open form present at equilibrium (from data fitting),"[6]; pD 5.96, equilibrium not reached within 16 h",24%
same,Inhibition of cell growth (MTT),HT-29 cell line; media with 1% fetal calf serum,no significant inhibition of cell growth
same,Inhibition of cell growth (MTT),HT-29 cell line; media with 10% fetal calf serum,no significant inhibition of cell growth
same,Arene loss on standing of the NMR solution,[2],not observed
"Nc1nc2c(ncn2[C@@H]2O[C@H](COP(=O)([O-])[O-])[C@@H](O)[C@H]2O)c(=O)[nH]1.[Na+].[Na+] [5′-GMP, guanosine 5′-monophosphate disodium salt]",pKa of the N7 position,[4],2.57
N[C@@H](Cc1c[nH]cn1)C(=O)O [L-histidine],side chain pKa,[4]; imidazole,6.07

# Source: paper PMC7024221, “The Application of Reversible Intramolecular Sulfonamide Ligation to Modulate Reactivity in Organometallic Ruthenium(II) Diamine Complexes” (Molecules, 2020)
